Experiment [1] relates to PKCδ. Description: Immunocytochemistry of PKCδ cellular localization in LNCaP cells. Format: cell-based, human. As to conditions: 5 hrs. The protocol: (§1) Immunocytocheimstry: Cells were cultured on glass cover slips coated with poly-L-ornithine (Sigma, Saint Louis, Mo.). At 5 hrs after treatment with drugs, the cells were fixed with 10% formaldehyde in diluted in PBS (−) and washed with PBS (−) three times. After permeabilized by 0.2% Tryton X-100 and 1% goat serum diluted in PBS (−), the cells were blocked by PBS (−) containing 5% goat serum. The cells were then incubated with primary antibodies diluted in PBS (−) containing 0.5% bovine serum albumin (BSA), and with secondary antibodies, which is either anti-IgG conjugated with fluorescein (Vector Laboratories. Burlingame, Calif.), diluted in PBS (−) containing 0.5% BSA. The cells were observed through Zeiss fluorescent microscope (Carl Zeiss, Thornwood, N.Y.).

Experiment [2] deals with PKCδ. Description: Immunocytochemistry of PKCδ cellular localization in 4T1 cells. As to conditions: 4T1, 5 hrs. Format: cell-based, mouse. On the procedure: as §1
Another experiment deals with HIF. Description: Western blotting of HIF in 67NR cells. It is filed as cell-based, mouse. As to conditions: M4N 80 μM. On the procedure:
(§2) Western blotting: After cells had been grown in […] flasks and treated with reagents, the cells were washed with PBS (−) three times and suspended in RIP A buffer (150 mM NaCl, 50 mM Tris-HCl (pH 8,0), 0.1% SDS, 1% NP40, and 0.5% deoxycholate) supplemented with protease inhibitor cocktail (Calbiochem, San Diego, Calif.). The sample volumes were adjusted by the total protein amount. Protein assay was performed by Bio-Rad Protein Assay (Bio-Rad Laboratories, Inc. Hercules, Calif.). The samples were resolved by the standard SDS-polyacrylamide gel electrophoresis and transferred to nitrocellulose membrane (Amersham Biosciences, Bjorkgatan, Sweden). The membranes were blocked with skim milk, and incubated with primary antibodies at 4° C. overnight and then with secondary antibody conjugated with horse radish peroxidase at room temperature for 2 hrs. The signals were detected by western blot chemiluminescence reagent plus (New England Nuclear Life Science Products, Boston, Mass.).
In general terms: A western blot detects proteins with antibodies after separation by electrophoresis.

Experiment [3] relates to PDK-1/Akt pathway-related proteins. Description: Western blotting of PDK-1/Akt pathway-related proteins in 67NR cells. Format: cell-based, mouse. As to conditions: 5 hrs after treatment. The protocol:
as §2

For experiment [4] the test system is unchanged. Put plainly: Western blotting of PDK-1/Akt pathway-related proteins in 4T1 cells. It is filed as cell-based, mouse. As to conditions: 4T1, 5 hrs after treatment. The protocol:
as §2

Another experiment relates to 4T1 cells. Description: MTT cell growth assay in 4T1 cells. Format: cell-based, mouse. On the procedure: (§3) Cell Culture Either cell line 4T1 or 67NR was a gift from Dr. Miller (20). The cells were cultured in RPMI1640 medium supplemented with glucose (14 mM), pyruvate (1 mM), penicillin (100 units/ml), streptomycin (100 μg/ml), and fetal bovine serum (10%), buffered with 25 mM HEPES (pH 7.4). LNCaP human prostate cancer cell line was purchased from American Type Culture Collection (Manassas, Va.). The cell line was cultured in RPMI1640 medium supplemented with glucose (14 mM), pyruvate (1 mM), penicillin (100 units/ml), streptomycin (100 μg/ml), and fetal bovine serum (10%). Drugs were dissolved in dimethyl sulfoxide (DMSO) at a suitable concentration so that the final concentration of DMSO in the medium was less than 0.1%.
MTT assay: Cells were incubated in PBS (−) supplemented with 5% fetal calf serum and 0.5 mg/ml MTT, 3-(4,5-Dimethylthiazol-2-yl)-2,5-diphenyltetrazolium bromide (Sigma, Saint Louis, Mo.) for 2 hrs. After the incubation, the cells were dissolved in dimethyl sulfoxide and the color of the solutions was measured by a spectrophotometer at wavelengths of 540 and 690 nm. The values correlated with viable cell numbers were obtained by subtracting the optical density at 690 nm from that, at 540 nm.
(Tetrazolium dyes change colour on reduction, which living cells bring about.)

Another experiment relates to LNCaP tumors. Put plainly: Nude mice orthotropically implanted with LNCaP tumors, about eight times tumor volume, treatment from day 3. It is filed as in vivo, mouse.
The subject of experiment [5] is LNCaP human prostate cancer cells. Format: cell-based. As to conditions: 28 hrs, M4N 80 μM, Ro 5 μM, Ly 20 μM. The protocol:
as §3
Apoptosis assay: Simple TLTNEL assay was conducted by using TUNEL apoptosis detection kit (Upstate, Temecula, Calif.) with some modification. For the evaluation of the effect of PKCδ wild type and dominant negative vectors on TUNEL-positive cell death, we first transfected 4T1 or 67NR cells with these vectors by effectene (Qiagen, Valencia, Calif.). Wild type PKCδ vector is constructed from wild type PKCδ gene and pEGFP (Promega, Madison, Wis.). Dominant negative PKCδ vector is constructed from PKCδ gene mutated at a 376th amino acid residue (threonine) and pEGFP (Promega, Madison, Wis.) This threonine residue is located in ATP-binding domain of protein kinase Cδ, and therefore essential for any kinase reaction of the protein so that this mutant protein supposedly function as dominant negative. As a control we used pEGFP-N3 vector was used. These vectors contain green fluorescent protein (GFP) gene to be used as a transfection marker. The vectors are kind gifts from Dr. Yuspa (National Institutes of Health, Bethesda, Md.) (88). Twenty four hours after transfection, the cells were treated with M4N, Rottlerin, or Ly294002. Then 24 hrs after this treatment with these reagents, the cells were fixed with 10% formaldehyde in phosphate buffered saline without calcium and magnesium (PBS (−)). The cells were then incubated with rabbit anti-GFP antibody (MBL International, Woburn, Mass.) followed by treatment with anti-rabbit IgG antibody conjugated with fluorescein (Promega, Madison, Wis.). TUNEL staining was conducted by using TUNEL apoptosis detection kit (Upstate, Temecula, Calif.) except for using Streptavidin-Alexa Fluor 568 (Molecular Probes, Eugene, Oreg.) instead of Avidine-Rhodamine contained in the kit. Cell death was evaluated by dividing the number of TUNEL-positive cells among the cells positive with anti-GFP staining by the number of these GFP-positive cells.

Description for LNCaP tumors: M4N and Rottlerin were dissolved into a solvent, CPE (25/30) solvent system supplied by Erimos Pharmaceutical, L.L.C. (Raleigh, N.C.) and injected into mice either intravenously or intraperitoneally, T-cell deficient male nude mice (nu/nu) were obtained from Charles River Laboratories (Wilmington, Mass.). M4N and Ly294002 were dissolved into a solvent, CPE (25/30) solvent system supplied by Erimos Pharmaceutical, L.L.C. (Raleigh, N.C.) and injected into mice intravenously.
Surgical orthotropic implantation of LNCaP tumors: LNCaP cells were grown as described above. Cells growing subconfluently were collected and resuspended into the tissue culture medium without fetal bovine serum and antibiotics. After counting the number of the cells, the cell concentration was adjusted using the same medium. After 20 μl of the medium containing a selected number of cancer cells (about 5×10^7 cells) had been mixed together with the same volume of Matrigel (BD science, Bedford, Mass.), the combined solution was injected into the skin of nude mice. […] The tumor tissue extracted from the skin was excised into pieces of about 2 mm diameter. After nude mice were anesthetized by 2,2,2-Tribromoethanol (Aldrich Chemical Co. Inc., Milwaukee, Wis.), a small incision was made at the abdomen of each mouse and a tumor tissue piece was implanted in the neighbor of the prostate of each mouse. Eight days after the operation, the injection of drugs was initiated, and the drugs were injected intravenously every day for the indicated periods
As in the previous experiment (FIGS. 9 to 13), in this study we administered M4N, Ly, Ro, Etoposide, or Rapamycin to mice intravenously using CPE (25/30) solvent system (87). […] However, in this experiment we implanted about eight times the volume of tumors as in the previous experiments to detect the difference of efficacy of various combination treatments much faster. We started to treat the mice with combination treatments three days after the implantation instead of eight days, considering that the tumor volume is already large at the time of implantation in this experiment. This allows less time for possible metastasis to the transplanted tumors in this experiment than in the previous one.

Regarding `COc1ccc(C[C@@H](C)[C@@H](C)Cc2ccc(OC)c(OC)c2)cc1OC` [M4N, tetra-O-methyl nordihydroguaiaretic acid], in the experiment with PKCδ [1], the “expression and nuclear level of total PKCδ” value is given as “Neither M4N, Ro, nor Ly treatment caused any remarkable change”; the “nuclear expression of phosphor-PKCδ (Thr507)” value is “augmented”. In addition, the “cellular distribution / nuclear staining of total PKCδ” value in the experiment with PKCδ [2] was “did not change much”. Besides, in the experiment on PKCδ [2] (with Desferoxamine 150 μM), the “nuclear staining for phosphor-PKCδ (Thr505) in the presence of Des” value is “markedly augmented nuclear staining”. Also, the “nuclear staining for phosphor-PKCδ (Thr505)” value in the experiment with PKCδ [2] (without Desferoxamine co-treatment) is “augmented staining”. Besides, in the experiment on HIF, the “effect on Desferoxamine-mediated HIF induction” value was “instead enhanced”. In addition, the “total Akt expression” value in experiment [3] is “not changed much”. Further, the “expression of phosphorylated PDK (Ser241), Akt (Ser473), PRAS40 (Thr246), Raf (Ser259), MEK (Ser217/221)” value in experiment [3] (M4N 80 μM) is listed as “significant reduction”. Also, the “total Akt expression” value in experiment [4] is “not changed much”. Moreover, the “expression of phosphorylated PDK (Ser241), Akt (Ser473), PRAS40 (Thr246), Raf (Ser259), MEK (Ser217/221)” value in experiment [4] (M4N 80 μM, Desferoxamine 75 or 150 μM) is “not much effect”. Further, in the experiment on 4T1 cells (4T1, 20 μM), the “cell growth (MTT) at 20 μM” value was “significant effect of the drug to reduce cell growth”. Besides, in the experiment with 4T1 cells (4T1, MTT), the “concentration at which cell growth stopped” value stood at 80 µM and the “time after treatment at which effect on cell growth was evident” value stood at 42 h. Besides, in the experiment with 4T1 cells (4T1, different concentrations of M4N), the “cell growth (MTT)” value was “reduced the cell growth of 4T1 cells depending on the concentration of the drug”. Further, in the experiment with LNCaP tumors (combination groups at 80 days after tumor implantation), the “mice with lung metastasis lesions” value was 2 out of 4. Also, the “time after implantation by which all mice died” value in the experiment with LNCaP tumors (mouse, in vivo) was ≤ 33 days. For the same compound, the TUNEL-positive cell death result in experiment [5] is “very small”.

These data come from patent publication USRE46907E1, “Suppression of cancer growth and metastasis using nordihydroguaiaretic acid derivatives with metabolic modulators” (THE JOHNS HOPKINS UNIVERSITY, priority 2008, dated 2018).
